Assay results taken from patent US8623897B2, “Methods and compositions for treatment of diabetes and dyslipidemia” (Kareus Therapeutics, SA, priority 2010, dated 2014).

Tests used:
[1] = tested on: obese diabetic C57BLKS db/db mice; test: In vivo efficacy in diabetic db/db mice (plasma glucose, triglycerides, HOMA index); parameters: species or system mouse; details: male db/db mice, after 1-2 weeks of treatment; for Plasma glucose (% change compared to vehicle) / Plasma Triglycerides (% change compared to vehicle): 6 h fast; for Insulin resistance HOMA index (% change compared to vehicle): HOMA = I0×G0/405
Protocol: Male obese diabetic C57BLKS db/db mice (6 weeks old) were procured from the Jackson Laboratory (Bar Harbor, Me.) and were maintained on LabDiet 5K52 ad libitum with access to water. Animals were kept in a temperature-controlled room on a 12:12-h light-dark cycle. Experiments were performed on 6-9 week old mice.
Blood samples were collected after a 6 h fast on day 0 (baseline) and at the end week 1 and week 2 (day 7 and day 14) for analysis of glucose, triglycerides, total cholesterol, insulin and free fatty acid levels. Body weight and feed intake was measured twice weekly. Before initiation of the treatment, the animals were randomized based on plasma glucose levels into treatment groups (n=8 per group). The animals were administered the test compounds in 0.5% carboxymethylcellulose in water at the mentioned doses for two weeks by oral gavage. The control animals received the vehicle (0.5% carboxymethylcellulose in water) alone. Compound administration was continued till day 16.
Plasma glucose (PG) and triglycerides (TG) were measured spectrophotometrically in a microplate reader using reagent kits (Labkit, Merck) according to the manufacturer's instructions. Plasma insulin was measured by ELISA using a Rat/Mouse kit from Millipore (Cat. No. EZRMI-13K).
The percentage reduction was calculated according to the following formula
[formula] Statistical analysis was carried out by one way ANOVA followed by Dunnett's test using GraphPad Prism.
Determination of Homeostatic model assessment of insulin resistance (HOMA)—The HOMA index for insulin resistance was calculated using the formula— I0×G0/405 Where I0 is the fasting insulin (μU/ml), G0 is the fasting glucose in mg/dL. A factor of 6.945 was used for the conversion of insulin pmol/L to μlU/L).
The table below summarizes the effect on plasma glucose, triglycerides, and insulin resistance after 1-2 weeks of treatment with representative compounds of Formula I. Example numbers denote the products of examples given above. The data presented in the table is representative and should not be read as limiting the invention to the specific examples listed in the Table.

Row | Structure (SMILES) | melting point [°C] | other results
1 | O=C(O)C1(CCCCCCCCCCCCC2(C(=O)NCCO)CC2)CC1 [Example 42, 1-{12-[1-(2-hydroxy-ethylcarbamoyl)-cyclopropyl]-dodecyl}-cyclopropane carboxylic acid] | 81.1 to 83.8 | 
2 | N#CC1(CCCCCCCCCCCCC2(C#N)CC2)CC1 | 45 to 46.9 | 
3 | CS(=O)(=O)NC(=O)C1(CCCCCCCCCCCCC2(C(=O)O)CC2)CC1 [Example 37, 1-[12-(1-Methanesulfonylaminocarbonyl-cyclopropyl)-dodecyl]-cyclopropanecarboxylic acid] | 97.5 to 99.4 | Plasma glucose (% change compared to vehicle) ([1]; 15 mg/kg oral gavage): −59%
4 | N#CC1(CCCCCCCCCCCCC2(C(=O)O)CC2)CC1 | 44.4 to 46.9 | 
5 | O=C(O)CC1(CCCCCCCCCCC2(C(=O)O)CC2)CC1 [Example 23, 1-[10-(1-Carboxymethyl-cyclopropyl)-decyl]-cyclopropanecarboxylic acid] | 71.9 to 74.3 | 
6 | O=C(O)CC1(CCCCCCCCCCCC2(C(=O)O)CC2)CC1 [Example 30, 1-[11-(1-Carboxymethyl-cyclopropyl)-undecyl]-cyclopropanecarboxylic acid] | 75.3 to 78.9 | 
7 | NC(=O)C1(CCCCCCCCCCCCC2(C(=O)O)CC2)CC1 [Example 12] | 116.6 to 118.1 | Plasma Triglycerides (% change compared to vehicle) ([1]; 20 mg/kg oral gavage): −28%; Plasma glucose (% change compared to vehicle) ([1]; 20 mg/kg oral gavage): −55%; Insulin resistance HOMA index (% change compared to vehicle) ([1]; 20 mg/kg oral gavage): −89%
8 | COC(=O)C1(CCCCCCCCCCCCC2(C(=O)NC3CC3)CC2)CC1 [Example 34, 1-[12-(1-cyclopropylcarbamoyl-cyclopropyl)-dodecyl]-cyclopropane-carboxylic acid methyl ester] | 50.6 to 53 | 
9 | COC(=O)C1(CCCCCCCCCCCCC2(C(=O)NS(C)(=O)=O)CC2)CC1 [Example 36, 1-[12-(1-Methanesulfonylaminocarbonyl-cyclopropyl)-dodecyl]-cyclopropanecarboxylic acid methyl ester] | 53.5 to 54.5 | 
10 | O=C(O)C1(CCCCCCCCCCCCC2(C(F)F)CC2)CC1 [Example 39, 1-[12-(1-Difluoromethyl-cyclopropyl)-dodecyl]-cyclopropanecarboxylic acid] | 54 to 54.8 | 
11 | CCOC(=O)C1(CCCCCCCCCCCCC2(C(=O)OCC)CC2)CC1 [Example 10, 2,15-Dicyclopropyl-hexadecanedoic acid diethyl ester] |  | Plasma Triglycerides (% change compared to vehicle) ([1]; 15 mg/kg oral gavage): −23%; Plasma glucose (% change compared to vehicle) ([1]; 15 mg/kg oral gavage): −51%
12 | O=C(O)C1(CCCCCCCCCCCCC2(C(=O)NC3CC3)CC2)CC1 [Example 35, 1-[12-(1-Cyclopropylcarbamoyl-cyclopropyl)-dodecyl]-cyclopropane carboxylic acid] | 95.3 to 97.7 | Plasma glucose (% change compared to vehicle) ([1]; 15 mg/kg oral gavage): −30%
13 | O=C(O)C1(CCCCCCCCCCCCC2(C(=O)O)CC2)CC1 [Example 1, 2,15-Dicycloproryl-hexadecanedioic acid] |  | Plasma glucose (% change compared to vehicle) ([1]; 10 mg/kg oral gavage): −52%; Insulin resistance HOMA index (% change compared to vehicle) ([1]; 10 mg/kg oral gavage): −65%
14 | O=C(NCCO)C1(CCCCCCCCCCCCC2(C(=O)NCCO)CC2)CC1 [Example 40, 1,1′-dodecane-1,12-diylbis[N-(2-hydroxyethyl)cyclopropanecarboxamide]] | 112.5 to 113.5 | 
15 | COCC1(CCCCCCCCCCCCC2(C(=O)O)CC2)CC1 [Example 15, 1-[12-(1-Methoxymethyl-cyclopropyl)-dodecyl]-cyclopropanecarboxylic acid] | 36.4 to 37.6 | Plasma Triglycerides (% change compared to vehicle) ([1]; 15 mg/kg oral gavage): −35%; Plasma glucose (% change compared to vehicle) ([1]; 15 mg/kg oral gavage): −56%; Insulin resistance HOMA index (% change compared to vehicle) ([1]; 15 mg/kg oral gavage): −92%
16 | O=C(O)CC1(CCCCCCCCCCC2(CC(=O)O)CC2)CC1 [Example 4, {1-[10-(1-carboxymethyl-cyclopropyl)-decyl]-cyclopropyl}-acetic acid] |  | Plasma Triglycerides (% change compared to vehicle) ([1]; 50 mg/kg oral gavage): −51%; Insulin resistance HOMA index (% change compared to vehicle) ([1]; 50 mg/kg oral gavage): −54%
17 | CC(C)(CCCCCCCCCCCCC1(C(=O)O)CC1)C(=O)O | 85.6 to 86.7 | 
